Experimental data published in US20230295131A1, “INHIBITORS OF RHO-ASSOCIATED COILED-COIL KINASE” (Angion Biomedica Corp., priority 2020, published 2023).

Experiments:
[1] = Pharmacokinetic profile, compound levels in the vena cava; type: in vivo, C57BL/6 Mouse; conditions: po 10 mg/kg in 0.5% CMC suspension
Method: (§1) For assessing compound levels in the vena cava, 10-11 week old male C57BL/6 animals were dosed orally with 10 mg/kg of Ex. 65 (mesylate salt) in 0.5% carboxymethyl cellulose (CMC) in water. Serum samples were collected from the portal vein at 15, 30, 60 120, 240, 360 and 480 minutes after dosing. Samples were analyzed for compound concentration by LC-MS.

[2] = tested on: CTGF in mouse embryonic fibroblasts (MEFs); test: TGFβ1-induced CTGF production assay; type: cell-based; conditions: 1 hour pretreatment before TGFβ1, real time PCR
Method: Mouse embryonic fibroblasts (MEFs) were isolated, starved overnight, then pretreated with Ex. 65 or Ex. 93 for 1 hour prior to addition of TGFβ1. RNA was isolated from cells and real time PCR was performed for CTGF.

ROCK2 = target: T1, ROCK2 (Homo sapiens, UniProt O75116); test: ROCK2 kinase binding affinity, DiscoverX KINOMEscan KdELECT
T1 construct: T7 phage fusion (kinase-tagged phage) or DNA tag for qPCR detection
T1 sequence (O75116 whole entry, the tested form may be a part): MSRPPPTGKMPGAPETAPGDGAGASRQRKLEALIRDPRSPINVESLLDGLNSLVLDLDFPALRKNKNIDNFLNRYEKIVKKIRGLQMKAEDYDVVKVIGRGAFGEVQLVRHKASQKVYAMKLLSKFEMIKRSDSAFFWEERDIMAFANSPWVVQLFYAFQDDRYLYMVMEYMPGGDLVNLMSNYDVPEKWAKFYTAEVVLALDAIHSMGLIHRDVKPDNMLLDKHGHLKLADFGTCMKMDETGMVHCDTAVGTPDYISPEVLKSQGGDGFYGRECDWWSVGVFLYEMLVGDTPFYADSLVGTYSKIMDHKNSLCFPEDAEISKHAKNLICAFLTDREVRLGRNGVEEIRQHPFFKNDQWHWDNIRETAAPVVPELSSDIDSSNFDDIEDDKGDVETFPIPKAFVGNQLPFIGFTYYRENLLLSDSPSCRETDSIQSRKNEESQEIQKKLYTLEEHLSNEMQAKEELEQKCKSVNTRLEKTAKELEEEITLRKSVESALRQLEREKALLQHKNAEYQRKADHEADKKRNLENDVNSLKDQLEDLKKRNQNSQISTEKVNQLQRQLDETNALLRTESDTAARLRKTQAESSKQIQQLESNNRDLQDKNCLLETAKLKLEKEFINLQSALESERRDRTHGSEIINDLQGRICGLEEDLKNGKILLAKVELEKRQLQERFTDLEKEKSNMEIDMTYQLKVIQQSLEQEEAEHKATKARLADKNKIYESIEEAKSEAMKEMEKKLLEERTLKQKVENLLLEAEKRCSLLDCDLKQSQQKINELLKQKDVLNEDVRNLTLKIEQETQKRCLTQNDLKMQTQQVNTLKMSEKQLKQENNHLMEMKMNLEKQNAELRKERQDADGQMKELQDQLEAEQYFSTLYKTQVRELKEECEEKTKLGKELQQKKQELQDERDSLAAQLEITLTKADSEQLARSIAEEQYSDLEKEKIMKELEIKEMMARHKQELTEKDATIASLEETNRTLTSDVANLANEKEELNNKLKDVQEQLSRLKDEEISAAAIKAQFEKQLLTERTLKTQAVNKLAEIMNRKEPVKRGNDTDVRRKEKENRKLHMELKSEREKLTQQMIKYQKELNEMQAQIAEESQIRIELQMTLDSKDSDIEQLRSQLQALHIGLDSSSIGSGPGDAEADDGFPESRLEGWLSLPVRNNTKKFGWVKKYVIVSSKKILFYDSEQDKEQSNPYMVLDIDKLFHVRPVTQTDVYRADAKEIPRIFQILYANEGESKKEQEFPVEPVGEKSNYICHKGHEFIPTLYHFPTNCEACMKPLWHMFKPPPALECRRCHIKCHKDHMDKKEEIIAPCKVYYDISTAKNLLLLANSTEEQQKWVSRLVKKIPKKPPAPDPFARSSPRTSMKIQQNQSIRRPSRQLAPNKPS
Summary of the method: (§2)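 Competition binding of DNA- or phage-tagged kinase to immobilised ligand beads, with bound kinase quantified by qPCR of eluates.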

ROCK1 = target: T2, ROCK1 (Homo sapiens, UniProt Q13464); test: ROCK1 kinase binding affinity, DiscoverX KINOMEscan KdELECT; conditions: 11-point 3-fold dilution
T2 construct: T7 phage fusion (kinase-tagged phage) or DNA tag for qPCR detection
T2 sequence (Q13464 whole entry, the tested form may be a part): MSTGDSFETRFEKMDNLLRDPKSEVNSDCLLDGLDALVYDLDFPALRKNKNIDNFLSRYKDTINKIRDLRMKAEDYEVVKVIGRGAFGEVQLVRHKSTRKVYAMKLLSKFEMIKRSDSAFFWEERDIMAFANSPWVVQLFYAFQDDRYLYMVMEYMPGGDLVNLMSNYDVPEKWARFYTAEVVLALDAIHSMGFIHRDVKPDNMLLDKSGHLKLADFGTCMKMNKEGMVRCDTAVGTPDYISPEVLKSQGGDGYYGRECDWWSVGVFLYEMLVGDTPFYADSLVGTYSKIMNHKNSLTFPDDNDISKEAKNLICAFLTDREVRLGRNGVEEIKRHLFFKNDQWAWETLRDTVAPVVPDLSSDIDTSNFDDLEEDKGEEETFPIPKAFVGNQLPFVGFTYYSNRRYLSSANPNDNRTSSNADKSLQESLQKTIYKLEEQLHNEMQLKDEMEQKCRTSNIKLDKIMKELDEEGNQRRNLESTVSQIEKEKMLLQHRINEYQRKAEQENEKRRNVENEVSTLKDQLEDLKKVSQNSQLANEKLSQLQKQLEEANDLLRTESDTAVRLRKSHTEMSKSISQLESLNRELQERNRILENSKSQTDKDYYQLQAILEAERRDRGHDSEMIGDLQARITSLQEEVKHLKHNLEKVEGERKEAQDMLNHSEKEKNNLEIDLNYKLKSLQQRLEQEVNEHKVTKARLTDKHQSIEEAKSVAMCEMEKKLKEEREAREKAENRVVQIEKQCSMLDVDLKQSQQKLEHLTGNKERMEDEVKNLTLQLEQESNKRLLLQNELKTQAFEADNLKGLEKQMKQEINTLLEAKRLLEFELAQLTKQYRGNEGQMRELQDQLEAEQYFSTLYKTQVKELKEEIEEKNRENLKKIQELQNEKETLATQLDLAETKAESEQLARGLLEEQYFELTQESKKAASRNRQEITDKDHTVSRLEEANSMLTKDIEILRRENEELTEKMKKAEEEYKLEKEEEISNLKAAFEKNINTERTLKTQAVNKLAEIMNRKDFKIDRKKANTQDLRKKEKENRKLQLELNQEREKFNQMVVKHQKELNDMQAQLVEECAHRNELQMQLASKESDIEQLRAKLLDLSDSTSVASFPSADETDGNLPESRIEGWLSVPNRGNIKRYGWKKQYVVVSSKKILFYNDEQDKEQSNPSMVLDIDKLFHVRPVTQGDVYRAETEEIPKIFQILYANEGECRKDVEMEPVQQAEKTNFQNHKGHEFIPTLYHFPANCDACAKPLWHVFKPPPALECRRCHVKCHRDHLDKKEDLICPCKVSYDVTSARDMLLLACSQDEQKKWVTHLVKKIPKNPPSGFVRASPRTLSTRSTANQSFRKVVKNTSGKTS
Summary of the method: as §2

Hepatic stellate cells = test: Gel contraction assay (TGFβ1-induced); type: cell-based; conditions: test compound at 100 μM, 1 hour pretreatment, TGFβ1 24 hours
Method: Hepatic stellate cells were plated onto collagen coated plates and pretreated with test compound (at 100 μM) for 1 hour. TGFβ1 is then added for 24 hours, and images are taken.

[3] = tested on: miRNAs in hepatic homogenates; test: miRNA quantification in liver homogenates of the NASH model; type: in vivo, mice
Method: (§3) 2. Pharmacodynamic and Efficacy Profile in Hepatic Diseases: • The activity of Ex. 65 was evaluated in a model of fast-food diet (FFD)+CCl4+sugar-induced NASH. Adult male mice were randomized to vehicle of 30 mg/kg test compound, IP, twice-daily for two weeks. Treatment with Ex. 65 reduced hepatic lipid accumulation (FIG. 3) and NAFLD activity score (NAS; FIG. 4).
MicroRNAs (miRNAs) from liver homogenates from the study described above were quantified. Compared to healthy livers, 65 differentially expressed miRNAs from NASH livers were identified, of which 22 were corrected by treatment with Ex. 65 (see Table 6).

[4] = tested on: fast-food diet (FFD)+CCl4+sugar-induced NASH; test: Fast-food diet (FFD)+CCl4+sugar-induced NASH model; type: in vivo, mice; conditions: 30 mg/kg, IP, twice-daily for two weeks; for hepatic lipid accumulation (liver steatosis): FIG. 3; for NAFLD activity score (NAS): FIG. 4
Method: as §3

[5] = Pharmacokinetic profile, compound levels in the portal vein; type: in vivo, C57BL/6 Mouse
Method: as §1, with “portal vein, 7-8” for “vena cava, 10-11”, “mg/kg compound” for “mg/kg”, “120” for “120, 240, 360”, “240” for “480”, “compound” for “compound concentration”

[6] = male, C57BL/6, mouse, vena cava serum, mesylate salt, serum
[7] = 30 mg/kg IP twice-daily two weeks
[8] = male, C57BL/6, mouse, portal vein serum, po 10 mg/kg in 0.5% CMC suspension, mesylate salt, serum

AUC [1, 6]: 145 ng·h/mL
Cmax [1, 6]: 258 nM
Cmax as multiple of Kd, in vena cava [1]: 318*Kd
F % in vena cava ([1]; mesylate salt): 4.6%
Kd (ROCK2; KINOMEscan KdELECT, 11-point 3-fold dilution, read-out: Kd (μM) ROCK2): < 0.01 µM
ROCK2 Selectivity (ROCK2; selectivity for ROCK2 over ROCK1 from Kd): **** (>500-fold selectivity for ROCK2)
Kd (ROCK1): 0.1 to 0.99 µM
AUC [5, 8]: 697 ng·h/mL
Cmax [5, 8]: 1540 nM
oral bioavailability and liver entry ([5]; mice, po, portal vein versus vena cava): preferential liver entry
Cmax as multiple of Kd, in portal vein ([5]; po 10 mg/kg in 0.5% CMC suspension): 1904*Kd
F % in portal vein ([5]; po 10 mg/kg in 0.5% CMC suspension, mesylate salt): 22%
SMILES: O[C@H]1CC[C@@H](Nc2nccc(-c3nccc(C#Cc4ccc5[nH]ncc5c4)n3)n2)CC1 [Ex. 65, (1s,4s)-4-((4-((1H-Indazol-5-yl)ethynyl)-[2,4′-bipyrimidin]-2′-yl)amino)cyclohexanol]
CTGF production in embryonic fibroblasts [2]: attenuated
TGFβ1-induced gel contraction in hepatic stellate cells (Hepatic stellate cells): significantly attenuated
hepatic levels of oncomiR-181a [3, 7]: reduced
hepatic levels of oncomiR-425 [3, 7]: reduced
Mean (disease + Ex. 65) mmu-miR-5123 ([3]; hepatic homogenates, mean control 3.22, disease 1.53): 3.54
Mean (disease + Ex. 65) mmu-miR-871-3p ([3]; hepatic homogenates, mean control 4.08, disease 1.53): 7.98
Mean (disease + Ex. 65) mmu-miR-7115-5p ([3]; hepatic homogenates, mean control 4.31, disease 8.54): 2.41
Mean (disease + Ex. 65) mmu-let-7k ([3]; hepatic homogenates, mean control 9.04, disease 13.85): 7.72
Mean (disease + Ex. 65) mmu-miR-93-3p ([3]; hepatic homogenates, mean control 39.45, disease 76.50): 46.52
Mean (disease + Ex. 65) mmu-miR-542-5p ([3]; hepatic homogenates, mean control 66.04, disease 74.42): 39.03
Mean (disease + Ex. 65) mmu-miR-27a-5p ([3]; hepatic homogenates, mean control 71.79, disease 98.65): 53.13
Mean (disease + Ex. 65) mmu-miR-106a-5p ([3]; hepatic homogenates, mean control 115.29, disease 149.51): 114.11
Mean (disease + Ex. 65) mmu-miR-125a-3p ([3]; hepatic homogenates, mean control 245.12, disease 297.02): 182.06
Mean (disease + Ex. 65) mmu-miR-501-3p ([3]; hepatic homogenates, mean control 364.92, disease 489.94): 296.78
Mean (disease + Ex. 65) mmu-miR-339-3p ([3]; hepatic homogenates, mean control 427.46, disease 502.07): 426.25
Mean (disease + Ex. 65) mmu-miR-802-5p ([3]; hepatic homogenates, mean control 1094.11, disease 614.54): 899.47
Mean (disease + Ex. 65) mmu-miR-322-3p ([3]; hepatic homogenates, mean control 1115.59, disease 1416.47): 949.59
Mean (disease + Ex. 65) mmu-miR-17-3p ([3]; hepatic homogenates, mean control 1200.81, disease 1454.34): 1161.55
Mean (disease + Ex. 65) mmu-miR-351-5p ([3]; hepatic homogenates, mean control 1248.83, disease 1603.84): 889.81
Mean (disease + Ex. 65) mmu-miR-99b-5p ([3]; hepatic homogenates, mean control 1421.33, disease 1933.41): 1099.61
Mean (disease + Ex. 65) mmu-miR-425-5p ([3]; hepatic homogenates, mean control 1716.15, disease 2037.69): 1524.04
Mean (disease + Ex. 65) mmu-miR-181a-5p ([3]; hepatic homogenates, mean control 3789.12, disease 5124.26): 2941.29
Mean (disease + Ex. 65) mmu-miR-320-3p ([3]; hepatic homogenates, mean control 4080.44, disease 5204.90): 3896.99
Mean (disease + Ex. 65) mmu-miR-93-5p ([3]; hepatic homogenates, mean control 36188.01, disease 41626.66): 31184.61
Mean (disease + Ex. 65) mmu-miR-143-3p ([3]; hepatic homogenates, mean control 67983.70, disease 80209.00): 58204.03
Mean (disease + Ex. 65) mmu-miR-191-5p ([3]; hepatic homogenates, mean control 118228.91, disease 141957.68): 119365.71
number of differentially expressed miRNAs of NASH livers corrected by treatment ([3]; of 65 differentially expressed miRNAs, 30 mg/kg IP twice-daily two weeks): 22
hepatic lipid accumulation (liver steatosis) [4]: reduced
hepatic lipid accumulation (liver steatosis) ([4]; listed as compound 65): reduction
NAFLD activity score (NAS) [4]: reduced
NAFLD activity score (NAS) ([4]; listed as compound 65): reduction
